This note sets out measurements from ChEMBL document CHEMBL1201862, “PubChem BioAssay data set” (2004).

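1) Cells in 96-well plates. 2) Compound, 48 h, 5 concentrations. 3) Linear interpolation between surrounding doses. 4) Unreached endpoint = highest concentration. The concentration for 50% growth inhibition is given as GI50.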 The source made the active and inactive calls. No stated cut-off is given here; in the data, active = GI50 up to about 1.1 µM and inactive = higher. A value given as a limit tells only on which side of the number the result lay.

Among the test systems are SF-539; SK-MEL-5; LOX IMVI; NCI-H460; M14; M19-MEL; MOLT-4; Malme-3M; OVCAR-3; HOP-62; OVCAR-8; HCC 2998; NCI-H23; UACC-62; RXF 393; IGROV-1; DU-145; U-251; MDA-MB-435.
Holding throughout (assay): NCI anticancer screen, dose series, 48 h

Take `CC1(C(=O)O)CCOc2ccccc21` (stereo not given): the GI50 in the assay with SF-539, in the assay with SK-MEL-5, in the assay with LOX IMVI, in the assay with NCI-H460, in the assay on M14 and in the assay with M19-MEL was > 100 µM (inactive) each time. Besides, the GI50 in the assay on MOLT-4, with Malme-3M, with OVCAR-3, in the assay on HOP-62, in the assay with OVCAR-8 and in the assay with HCC 2998 was > 100 µM (inactive) throughout. Further, the GI50 with NCI-H23, in the assay on UACC-62, with RXF 393 and in the assay on IGROV-1 was > 100 µM (inactive) in each case.
Consider `C=C1CC2(C[C@@H](c3ccccc3)O[C@@H](c3ccccc3)C2)OC1=O` (stereo not given in full), for which the GI50 in the assay with SF-539 is 1.92 µM (inactive); with SK-MEL-5, 3.01 µM (inactive); in the assay on LOX IMVI, 1.25 µM (inactive); with NCI-H460 it was 10.2 µM (inactive); in the assay on M14 it was 1.77 µM (inactive); in the assay with DU-145, 9.12 µM (inactive). For the same molecule, the GI50 with MOLT-4 is 1.95 µM (inactive); in the assay on Malme-3M, 1.89 µM (inactive); with OVCAR-3, 2.36 µM (inactive); in the assay on HOP-62, 14.4 µM (inactive); in the assay on OVCAR-8, 2.49 µM (inactive); in the assay with HCC 2998, 6.7 µM (inactive). Besides, the GI50 in the assay with NCI-H23 was 2.64 µM (inactive); in the assay with UACC-62 it was 2.51 µM (inactive); with U-251, 15.4 µM (inactive); in the assay with MDA-MB-435, 2.99 µM (inactive); in the assay with RXF 393, 1.94 µM (inactive); in the assay with IGROV-1, 2.71 µM (inactive).
Consider `CCCCCCCC(=O)OC[n+]1cccc(-c2c(COC(=O)NC(C)C)c(COC(=O)NC(C)C)c3n2CCC3)c1`, for which the GI50 in the assay on SF-539 was 33.7 µM (inactive); in the assay on SK-MEL-5, > 100 µM (inactive); in the assay on LOX IMVI it was 60.3 µM (inactive); in the assay on NCI-H460, 46.1 µM (inactive); in the assay on M14 it was 98.2 µM (inactive); in the assay on DU-145 it was > 83.9 µM (inactive). Also, the GI50 in the assay with MOLT-4 was 20.1 µM (inactive); in the assay with Malme-3M it was > 100 µM (inactive); in the assay with OVCAR-3, > 100 µM (inactive); in the assay on HOP-62, > 63.1 µM (inactive); in the assay with OVCAR-8, 82 µM (inactive); in the assay on HCC 2998, > 100 µM (inactive). Further, the GI50 was 61.7 µM (inactive) with NCI-H23; 38.1 µM (inactive) with UACC-62; > 72.8 µM (inactive) in the assay with U-251; > 100 µM (inactive) with MDA-MB-435; 44.2 µM (inactive) in the assay with RXF 393; > 51.2 µM (inactive) in the assay with IGROV-1.
On to `CCCCCCCCCCCCOCCCCCCCCC/C=C/c1ccc2c(c1)OCCOCCOCCOCCO2`, for which the GI50 in the assay on SF-539 is 17.4 µM (inactive); with SK-MEL-5 it was 15.5 µM (inactive); in the assay on LOX IMVI, 19.3 µM (inactive); in the assay with NCI-H460, 18.4 µM (inactive); in the assay on M14 it was 25.4 µM (inactive); in the assay with DU-145, 33 µM (inactive). The GI50 in the assay with MOLT-4 is 28.7 µM (inactive); with Malme-3M it was 24.6 µM (inactive); with OVCAR-3, 21.1 µM (inactive); in the assay on HOP-62, 28 µM (inactive); with OVCAR-8, 12.7 µM (inactive); in the assay with HCC 2998, 17.9 µM (inactive). The GI50 is 15.6 µM (inactive) in the assay with NCI-H23; 15.1 µM (inactive) in the assay with UACC-62; 22.8 µM (inactive) in the assay with U-251; 18.3 µM (inactive) in the assay with MDA-MB-435; 19.2 µM (inactive) in the assay on RXF 393; 21.3 µM (inactive) in the assay on IGROV-1.
As for `Cc1ccc(C[N+](C)(C)N)cc1C`, the GI50 in the assay on SF-539, in the assay with SK-MEL-5, in the assay on LOX IMVI, in the assay with NCI-H460, in the assay with M14 and with DU-145 was > 10 µM (inactive) throughout. Further, the GI50 in the assay on MOLT-4, in the assay on Malme-3M, in the assay with OVCAR-3, in the assay with HOP-62, in the assay with OVCAR-8 and with HCC 2998 was > 10 µM (inactive) throughout. Besides, the GI50 in the assay with NCI-H23, in the assay with UACC-62, in the assay with U-251, in the assay with MDA-MB-435, with RXF 393 and with IGROV-1 was > 10 µM (inactive) in each case.
On to `COc1ccc(NC(=O)C2C(=O)N(c3ccc(OC)cc3)C(=O)/C2=N\N)cc1` (stereo not given), for which the GI50 in the assay on SF-539, in the assay with SK-MEL-5, in the assay on NCI-H460, with M14, with M19-MEL and in the assay with MOLT-4 was > 100 µM (inactive) each time. The GI50 in the assay on Malme-3M, in the assay with HOP-62, in the assay with OVCAR-8, in the assay with HCC 2998, in the assay with NCI-H23 and with UACC-62 was > 100 µM (inactive) each time. Further, the GI50 in the assay with U-251, in the assay with RXF 393 and in the assay on IGROV-1 was > 100 µM (inactive) in each case.
Regarding `C=CCC1[C@@H](C(C)(C)C(C(C)=O)C(=O)C(=O)OC)OC(C(C)(C)C)N1C(=O)OC` (stereo not given in full), the GI50 in the assay with SF-539 is > 100 µM (inactive); with SK-MEL-5, > 100 µM (inactive); in the assay with NCI-H460, > 100 µM (inactive); in the assay on M14 it was > 100 µM (inactive); with M19-MEL it was > 100 µM (inactive); in the assay on MOLT-4, 24.6 µM (inactive). For the same molecule, the GI50 with Malme-3M, in the assay on OVCAR-3, with HOP-62, in the assay with OVCAR-8, in the assay on HCC 2998 and in the assay with NCI-H23 was > 100 µM (inactive) in each case. Moreover, the GI50 with UACC-62, in the assay on U-251 and in the assay on RXF 393 was > 100 µM (inactive) in each case.
With `CC(=O)Nc1ccc2c3c(cc(O)c2c1)N(C(=O)CCCCCC(=O)N1CC(CCl)c2c1cc(O)c1cc(NC(C)=O)ccc21)CC3CCl` (stereo not given), the GI50 in the assay on SF-539 was 0.012 µM (active); with SK-MEL-5, 0.0109 µM (active); in the assay on LOX IMVI it was < 0.01 µM (active); in the assay on NCI-H460, < 0.01 µM (active); in the assay on M14, < 0.01 µM (active); with DU-145, < 0.01 µM (active). The GI50 in the assay on MOLT-4 was < 0.01 µM (active); with Malme-3M it was 0.0125 µM (active); in the assay with OVCAR-3, 0.0172 µM (active); in the assay on HOP-62, 0.019 µM (active); in the assay with OVCAR-8, < 0.0104 µM (active); with HCC 2998 it was 0.0211 µM (active). The GI50 with NCI-H23 is < 0.01 µM (active); with UACC-62, < 0.01 µM (active); in the assay with U-251, < 0.01 µM (active); in the assay with MDA-MB-435, 0.0191 µM (active); in the assay on RXF 393 it was 0.0152 µM (active); with IGROV-1, 0.0292 µM (active).
With `CC(=O)N1C(CCc2ccccc2)CC(C)(C=O)C1Cc1ccc(O[Si](C(C)C)(C(C)C)C(C)C)cc1` (stereo not given), the GI50 was 2.43 µM (inactive) in the assay with SF-539; 3.4 µM (inactive) with SK-MEL-5; 1.94 µM (inactive) with LOX IMVI; 2.96 µM (inactive) in the assay with NCI-H460; 1.85 µM (inactive) in the assay on M14; 5.61 µM (inactive) in the assay with DU-145. Further, the GI50 was 1.06 µM (active) in the assay on MOLT-4; 14.2 µM (inactive) in the assay with Malme-3M; 4.8 µM (inactive) in the assay on OVCAR-3; 8.11 µM (inactive) in the assay on HOP-62; 4.39 µM (inactive) in the assay on OVCAR-8; 1.31 µM (inactive) in the assay with HCC 2998. The GI50 in the assay with NCI-H23 is 5.53 µM (inactive); in the assay on UACC-62, 4.68 µM (inactive); with U-251, 3.12 µM (inactive); in the assay on MDA-MB-435, 2.63 µM (inactive); in the assay on RXF 393, 1.69 µM (inactive); in the assay on IGROV-1, 4.9 µM (inactive).
With `CCN(CCCOc1ccccc1)CCN(CC)CCCOc1ccccc1`, the GI50 in the assay with SF-539 was 10.7 µM (inactive); with SK-MEL-5 it was 2.22 µM (inactive); in the assay with LOX IMVI it was 10.8 µM (inactive); in the assay on NCI-H460, 8.38 µM (inactive); in the assay with M14, 11.5 µM (inactive); in the assay on DU-145, 10.9 µM (inactive). Also, the GI50 with MOLT-4 was 2.57 µM (inactive); with Malme-3M, 15.8 µM (inactive); with OVCAR-3 it was 14.8 µM (inactive); in the assay with HOP-62, 20.4 µM (inactive); in the assay with OVCAR-8, 15.7 µM (inactive); in the assay on HCC 2998 it was 8.69 µM (inactive). Also, the GI50 in the assay with NCI-H23 was 18.8 µM (inactive); in the assay on UACC-62, 14.2 µM (inactive); in the assay with U-251, 12.9 µM (inactive); with MDA-MB-435, 13 µM (inactive); with RXF 393 it was 13.4 µM (inactive); in the assay with IGROV-1, 10.9 µM (inactive).
`Cc1ccc(N(C)S(=O)(=O)c2ccccc2)cc1`: the GI50 in the assay on SF-539 is > 100 µM (inactive); in the assay on SK-MEL-5, 67.5 µM (inactive); in the assay with LOX IMVI, > 100 µM (inactive); in the assay with NCI-H460, 87.9 µM (inactive); in the assay on M14, > 100 µM (inactive); in the assay on DU-145 it was > 100 µM (inactive). Also, the GI50 was 19 µM (inactive) in the assay with MOLT-4; > 100 µM (inactive) in the assay with Malme-3M; > 100 µM (inactive) with OVCAR-3; > 100 µM (inactive) in the assay with HOP-62; > 100 µM (inactive) in the assay with OVCAR-8; > 100 µM (inactive) in the assay on HCC 2998. Further, the GI50 is 95.5 µM (inactive) with NCI-H23; 84.5 µM (inactive) in the assay with UACC-62; > 100 µM (inactive) with U-251; 74 µM (inactive) in the assay with MDA-MB-435; 29.5 µM (inactive) in the assay with RXF 393; > 100 µM (inactive) in the assay on IGROV-1.
